Laboratory results: ChEMBL document CHEMBL1201862, “PubChem BioAssay data set” (2004)
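Method: 48-hour compound exposure of cells in 96-well plates, five concentrations, linear interpolation of endpoints. GI50 is the concentration that inhibits growth by half.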 Active and inactive are the calls of the source. Cut-off read from the data, not from the text of the source: active = GI50 up to about 1.1 µM and inactive = higher.

How the values were obtained:
Experiment in all cases: NCI tumour cell line growth inhibition, 48 h
SF-295 = test system: SF-295
MDA-N = test system: MDA-N
NCI-H23 = test system: NCI-H23
SK-MEL-28 = test system: SK-MEL-28
NCI-H460 = test system: NCI-H460
SK-MEL-2 = test system: SK-MEL-2
NCI-H522 = test system: NCI-H522
SF-539 = test system: SF-539
HT-29 = test system: HT-29
SN12C = test system: SN12C
HOP-92 = test system: HOP-92
SW-620 = test system: SW-620
PC-3 = test system: PC-3
DU-145 = test system: DU-145
LOX IMVI = test system: LOX IMVI
COLO 205 = test system: COLO 205
MDA-MB-231 = test system: MDA-MB-231
Malme-3M = test system: Malme-3M
MOLT-4 = test system: MOLT-4
KM12 = test system: KM12
786-0 = test system: 786-0
RXF 393 = test system: RXF 393
M14 = test system: M14
NCI-H226 = test system: NCI-H226
IGROV-1 = test system: IGROV-1
HCT-116 = test system: HCT-116
SNB-19 = test system: SNB-19
BT-549 = test system: BT-549
HCT-15 = test system: HCT-15
MCF7 = test system: MCF7
SNB-75 = test system: SNB-75
NCI/ADR-RES = test system: NCI/ADR-RES
HCC 2998 = test system: HCC 2998
MDA-MB-435 = test system: MDA-MB-435
K562 = test system: K562
UACC-257 = test system: UACC-257
SK-OV-3 = test system: SK-OV-3
UO-31 = test system: UO-31
ACHN = test system: ACHN
SK-MEL-5 = test system: SK-MEL-5
OVCAR-4 = test system: OVCAR-4
OVCAR-8 = test system: OVCAR-8
U-251 = test system: U-251
EKVX = test system: EKVX
HOP-62 = test system: HOP-62
OVCAR-3 = test system: OVCAR-3
CCRF-CEM = test system: CCRF-CEM
SF-268 = test system: SF-268
CAKI-1 = test system: CAKI-1
A549 = test system: A549
OVCAR-5 = test system: OVCAR-5
TK-10 = test system: TK-10
RPMI-8226 = test system: RPMI-8226
UACC-62 = test system: UACC-62
SR = test system: SR
HL-60 = test system: HL-60
T47D = test system: T47D

`C=CCOCC1C2CCC3(OCCO3)C21` (stereo unspecified) was tested, and the GI50 (SF-295) was > 100 µM (inactive), the GI50 (MDA-N) was > 100 µM (inactive) and the GI50 (NCI-H23) was 48.5 µM (inactive). The GI50 (SK-MEL-28) was > 100 µM (inactive), the GI50 (NCI-H460) was > 100 µM (inactive) and the GI50 (SK-MEL-2) was > 100 µM (inactive). For the same molecule, the GI50 (NCI-H522) was > 100 µM (inactive), the GI50 (SF-539) was > 100 µM (inactive) and the GI50 (HT-29) was > 100 µM (inactive). For the same molecule, the GI50 (SN12C) was > 100 µM (inactive), the GI50 (HOP-92) was > 100 µM (inactive) and the GI50 (SW-620) was > 100 µM (inactive). For the same molecule, the GI50 (PC-3) was > 100 µM (inactive), the GI50 (DU-145) was > 100 µM (inactive) and the GI50 (LOX IMVI) was > 100 µM (inactive). For the same molecule, the GI50 (COLO 205) was > 100 µM (inactive), the GI50 (MDA-MB-231) was > 100 µM (inactive) and the GI50 (Malme-3M) was > 100 µM (inactive). The GI50 (MOLT-4) was > 100 µM (inactive), the GI50 (KM12) was > 100 µM (inactive) and the GI50 (786-0) was > 100 µM (inactive). The GI50 (RXF 393) was > 100 µM (inactive), the GI50 (M14) was > 100 µM (inactive) and the GI50 (NCI-H226) was > 100 µM (inactive). For the same molecule, the GI50 (IGROV-1) was > 100 µM (inactive), the GI50 (HCT-116) was > 100 µM (inactive) and the GI50 (SNB-19) was > 100 µM (inactive). The GI50 (BT-549) was > 100 µM (inactive), the GI50 (HCT-15) was over 100 µM and the GI50 (MCF7) was > 100 µM (inactive). The GI50 (SNB-75) was > 100 µM (inactive), the GI50 (NCI/ADR-RES) was > 100 µM (inactive) and the GI50 (HCC 2998) was > 100 µM (inactive). For the same molecule, the GI50 (MDA-MB-435) was > 100 µM (inactive), the GI50 (K562) was 46.9 µM (inactive) and the GI50 (UACC-257) was > 100 µM (inactive). The GI50 (SK-OV-3) was > 100 µM (inactive), the GI50 (UO-31) was 19.1 µM (inactive) and the GI50 (ACHN) was > 100 µM (inactive). The GI50 (SK-MEL-5) was > 100 µM (inactive), the GI50 (OVCAR-4) was > 100 µM (inactive) and the GI50 (OVCAR-8) was > 100 µM (inactive). For the same molecule, the GI50 (U-251) was > 100 µM (inactive), the GI50 (EKVX) was > 100 µM (inactive) and the GI50 (HOP-62) was > 100 µM (inactive). The GI50 (OVCAR-3) was > 100 µM (inactive), the GI50 (CCRF-CEM) was 99.5 µM (inactive) and the GI50 (SF-268) was > 100 µM (inactive). The GI50 (CAKI-1) was 30.4 µM (inactive), the GI50 (A549) was > 100 µM (inactive) and the GI50 (OVCAR-5) was > 100 µM (inactive). The GI50 (TK-10) was > 100 µM (inactive), the GI50 (RPMI-8226) was > 100 µM (inactive) and the GI50 (UACC-62) was 30.1 µM (inactive). For the same molecule, the GI50 (SR) was > 100 µM (inactive).

For `O=C1CSC(c2c[nH]c3ccccc23)N1c1cccc([N+](=O)[O-])c1` (stereo unspecified), the GI50 (SF-295) was 66.7 µM (inactive), the GI50 (MDA-N) was 34.8 µM (inactive) and the GI50 (NCI-H23) was > 100 µM (inactive). For the same molecule, the GI50 (SK-MEL-28) was > 100 µM (inactive), the GI50 (NCI-H460) was 28.8 µM (inactive) and the GI50 (NCI-H522) was 95.3 µM (inactive). The GI50 (SF-539) was 82 µM (inactive), the GI50 (HT-29) was > 100 µM (inactive) and the GI50 (SN12C) was > 100 µM (inactive). For the same molecule, the GI50 (HOP-92) was 32.6 µM (inactive), the GI50 (SW-620) was > 100 µM (inactive) and the GI50 (PC-3) was 36.1 µM (inactive). The GI50 (DU-145) was 51.9 µM (inactive), the GI50 (LOX IMVI) was 93.5 µM (inactive) and the GI50 (COLO 205) was > 100 µM (inactive). For the same molecule, the GI50 (MDA-MB-231) was 56.2 µM (inactive), the GI50 (MOLT-4) was > 100 µM (inactive) and the GI50 (KM12) was 24.4 µM (inactive). The GI50 (786-0) was > 100 µM (inactive), the GI50 (RXF 393) was > 100 µM (inactive) and the GI50 (HL-60) was > 100 µM (inactive). For the same molecule, the GI50 (M14) was > 100 µM (inactive), the GI50 (IGROV-1) was > 100 µM (inactive) and the GI50 (T47D) was > 100 µM (inactive). For the same molecule, the GI50 (HCT-116) was 73.1 µM (inactive), the GI50 (SNB-19) was > 100 µM (inactive) and the GI50 (BT-549) was > 100 µM (inactive). The GI50 (HCT-15) was 42.9 µM, the GI50 (MCF7) was 90.8 µM (inactive) and the GI50 (SNB-75) was 43.7 µM (inactive). For the same molecule, the GI50 (HCC 2998) was > 100 µM (inactive), the GI50 (MDA-MB-435) was 38.3 µM (inactive) and the GI50 (K562) was 76.2 µM (inactive). For the same molecule, the GI50 (UACC-257) was > 100 µM (inactive), the GI50 (SK-OV-3) was > 100 µM (inactive) and the GI50 (UO-31) was 42.7 µM (inactive). For the same molecule, the GI50 (SK-MEL-5) was 84.3 µM (inactive), the GI50 (OVCAR-4) was > 100 µM (inactive) and the GI50 (OVCAR-8) was > 100 µM (inactive). The GI50 (U-251) was > 100 µM (inactive), the GI50 (EKVX) was > 100 µM (inactive) and the GI50 (HOP-62) was > 100 µM (inactive). For the same molecule, the GI50 (OVCAR-3) was > 100 µM (inactive), the GI50 (CCRF-CEM) was > 100 µM (inactive) and the GI50 (SF-268) was > 100 µM (inactive). For the same molecule, the GI50 (A549) was > 100 µM (inactive), the GI50 (OVCAR-5) was > 100 µM (inactive) and the GI50 (TK-10) was 81.8 µM (inactive). For the same molecule, the GI50 (RPMI-8226) was > 100 µM (inactive), the GI50 (UACC-62) was 80.5 µM (inactive) and the GI50 (SR) was > 100 µM (inactive).
